Patent US9429582B2, “Tyrosine-phosphorylated WBP2, a novel cancer target and biomarker” (National University of Singapore, priority 2010, dated 2016)

Experiments:
Format in all cases: cell-based, human
WBP2 = assay: EGF-induced WBP2 tyrosine phosphorylation in HeLa (IP/IB); conditions: HeLa co-transfected with EGFR and WBP2; 50 ng/ml EGF 5 min; 1 hr pre-treatment with 1 μM AZD0530
Method: (§1) A: HeLa were co-transfected with EGFR and V5-tagged WT or individual Y→F mutant of WBP2. 24 hr post-transfection, cells were serum-starved and stimulated with 50 ng/ml EGF for 5 min with/without 1 hr pre-treatment with 10 μM Iressa or 1 μM AZD0530. Whole cell lysates were used for IP/IB analysis with antibodies indicated. B: HeLa were co-transfected with EGFR and V5-tagged WT or individual Y→F mutant of WBP2 in the absence or presence of Src-DN overexpression. C: HeLa were co-transfected with (a) WBP2; (b) WBP2 and EGFR; (c) WBP2 and wild-type (WT) Src; (d) WBP2 and constitutively active (CA) Src; (e) WBP2, EGFR and WT-Src; (f) WBP2, EGFR ad CA-Src; (g) Y192-231F, EGFR and WT-Src. For experiments B and C, 24 hr post-transfection, cells were serum-starved overnight and stimulated with 50 ng/ml EGF for 5 min. Whole cell lysates were used for IP/IB analysis with antibodies indicated. D: HeLa were co-transfected with EGFR and V5-tagged WT or individual Y→F mutant of WBP2. 24 hrpost-transfection, cells were serum-starved and stimulated with 50 ng/ml EGF for 5 min with/without 1 hr pre-treatment with 10 μM Iressa or 1 μM AZD0530. Whole cell lysates were used for IP/IB analysis with antibodies indicated. E: HeLa were co-transfected with EGFR and V5-tagged WT or individual Y→F mutant of WBP2 in the absence or presence of Src-DN-K295M overexpression. F: HeLa were cotransfected with (a) WBP2; (b) WBP2 and EGFR; (c) WBP2 and wild-type (WT) Src; (d) WBP2 and constitutively-active (CA) Src-Y529F; (e) WBP2, EGFR and WT-Src; (f) WBP2, EGFR ad CA-Src; (g) Y192-231F, EGFR and WT-Src. For experiments B and C, 24 hr post-transfection, cells were serum-starved overnight and stimulated with 50 ng/ml EGF for 5 min. Whole cell lysates were used for IP/IB analysis with antibodies indicated. G: MCF7 were co-transfected with V5-tagged WBP2 and either negative control siRNA, c-Yes siRNA or c-Src siRNA. For both experiments, 24 hr post-transfection, cells were serum-starved overnight and stimulated with 50 ng/ml EGF for 5 min. Whole cell lysates were used for IP/IB analysis with antibodies indicated. […]

EGFR = EGFR activation (auto-phosphorylation) in EGF-stimulated HeLa (IB); conditions: 50 ng/ml EGF 5 min, c-Src inhibition, 1 μM AZD0530
Method: as §1, with “overexpression.” for “overexpression. F: HeLa were cotransfected with (a) WBP2; (b) WBP2 and EGFR; (c) WBP2 and wild-type (WT) Src; (d) WBP2 and constitutively-active (CA) Src-Y529F; (e) WBP2, EGFR and WT-Src; (f) WBP2, EGFR ad CA-Src; (g) Y192-231F, EGFR and WT-Src. For experiments B and C, 24 hr post-transfection, cells were serum-starved overnight and stimulated with 50 ng/ml EGF for 5 min. Whole cell lysates were used for IP/IB analysis with antibodies indicated. G: MCF7 were co-transfected with V5-tagged WBP2 and either negative control siRNA, c-Yes siRNA or c-Src siRNA. For both experiments, 24 hr post-transfection, cells were serum-starved overnight and stimulated with 50 ng/ml EGF for 5 min. Whole cell lysates were used for IP/IB analysis with antibodies indicated.”

[1] = tested on: YAP, ERα, cyclin D1, Wnt3a, pGSKβ, β-catenin, c-Myc, Bcl-2, c-Yes, p16, p21, MMP2; assay: Immunoblot of Y192-231E mutant expressing MCF7 with WBP2 knockdown; conditions: WBP2 expression silenced in WBP2 Y192-231E stable transfectant
Method: A: Whole cell lysates from vector, WBP2-WT, WBP2-Y192-231E mutant and WBP2-Y192-231F mutant expressing MCF7 or Y192-231E mutant expressing MCF7 with WBP2 knockdown were used for IB analysis with antibodies indicated. B: Vector, WBP2-WT, WBP2-Y192-231E mutant or WBP2-Y192-231F mutant-expressing MCF7 were co-transfected with TOPFlash (top panel) or ERE-Luciferase (bottom panel) reporter construct. For cells co-transfected ERE-luciferase, they were either left alone or stimulated with 50 ng/ml Wnt3a ligand for 16 hrs. TCF/ERα luciferase activities in various conditions were then assayed. **P<0.01, ***P<0.001, Student's t-test (2-tailed). […] Cell numbers were measured. […]
Whole cell lysates from vector, WBP2-WT, WBP2-Y192-231E mutant and WBP2-Y192-231F mutant expressing MCF7 (A) or Y192-231E mutant expressing MCF7 with WBP2 knockdown (B) were used for IB analysis with antibodies indicated. Their expression levels were quantified in three independent experiments and the averages were presented relative to actin. […] TCF(C)/ER[…](D) luciferase activities in various conditions were then assayed and analyzed in relative to untreated vector control. **P<0.01, ***P<0.001, Student's t-test (2-tailed). […] Cell numbers were measured daily and compared in relative to vehicle treated vector-expressing cells on Day 0. […] Cell numbers were measured and compared in relative to vehicle-treated cells. […]

Row | Compound | EGF-induced tyrosine phosphorylation of WBP2 (WBP2) | EGFR activation (EGFR auto-phosphorylation) (EGFR) | expression of c-Yes, p16, p21 and active MMP2 [1] | expressions of YAP, ERα, cyclin D1, Wnt3a, pGSKβ, β-catenin, c-Myc [1]
1 | CN1CCN(CCOc2cc(OC3CCOCC3)c3c(Nc4c(Cl)ccc5c4OCO5)ncnc3c2)CC1 [AZD0530] | abolished | significant reduction |  | 
2 | 5′-AGCAUCCGCUGUCCGAACUCAAUGG-3′ ((5'-AGCAUCCGCUGUCCGAACUCAAUGG-3'; as printed in the source, key not given here) [WBP2 siRNA, small interfering RNA designed to suppress the expression of WBP2] |  |  | remained unchanged | suppressed
